Reference: patent publication US20240343747A1, “Heteroaryl compounds as inhibitors of TYK2, composition and application thereof” (Accro Bioscience (HK) Limited, priority 2021, published 2024)

Key:
[1] = tested on: JAK2/JAK2 pathway; assay: Selectivity: JAK2/JAK2 pathway, TPO-induced p-STAT3 in MEG-1 cells, western blot; type: cell-based; settings: TPO 100 ng/mL
Procedure: MEG-1 cells were digested by trypsin, re-suspended in 1640 medium and counted. The compounds to be measured were added to 6 well plates (1 million/per well) for 2 hours, and then TPO (final concentration: 100 ng/mL) was added to stimulate cells for 30 minutes. The cells were collected and lysed with protein lysate. The protein was quantitatively tested by BCA kit. Finally, p-STAT3/STAT3 and internal reference protein β-actin were detected by western blot.

[2] = tested on: JAK1/JAK2 pathway; assay: Selectivity: JAK1/JAK2 pathway, IFN-γ-induced p-STAT1 in HT-29 cells, western blot; type: cell-based; settings: IFN-γ 100 ng/mL
Procedure: HT-29 cells were digested by trypsin and suspended in DMEM medium and counted. The tested compounds were added into 6 well plates (400 000/per well) for 2 hours, then IFN-γ (100 ng/mL) was added to stimulate cells for 30 minutes. The cells were collected and lysed with protein lysate. The protein was quantitatively tested by BCA kit. Finally, p-STAT1/STAT1 and internal reference protein β-actin were detected by western blot.

[3] = target: TYK2 (Mus musculus (Mouse), UniProt Q9R117); assay: Luciferase assay in L929 ISRE cells stimulated with IFN-α; type: cell-based; settings: IFN-α 100 ng/mL; for inhibition at 1 µM: read-out: Inhibitory activity % (1000 nM)
Procedure: • 1. L929 ISRE cells (5000 cells/well) were seeded on 96-well plates and incubated overnight at room temperature; • 2. The cells were pretreated by adding different concentrations (10 nM, 50 nM, 100 nM, 200 nM or 1000 nM) of the test compounds for 2 hours; • 3. Added IFN-α (100 ng/mL) to stimulate cells for 6 hours; • 4. Removed the upper medium, add PBS (100 μL) and washed, then removed PBS; • 5. Added PLB lysis solution (50 μL) to each well, shook the well for 15 minutes; • 6. Transferred PLB lysis solution (30 μL) to a new 96-well whiteboard, added LAR II reagent (LAR II), then quickly read the […]; • 7. Added Stop & Glo reagent (30 μL), then read the 450 nm OD value using the plate washer. • 8. The final results in Table 3 were the OD value in step 6/OD value in step 7.

[4] = tested on: IL-23 induced psoriasis; assay: IL-23 induced psoriasis in mice (ear thickness); type: in vivo; settings: oral gavage twice a day, 14 days, B41 10 and 30 mg/kg, BMS986165 10 mg/kg
Procedure: Recombinant human IL-23 (100 ng/time/mouse) was injected into the right ear of mice every two days starting from day 1 of the study. The administration group included 7 mice, with EtOH:TPGS:PEG300=[…] as vehicle, compound B41 (10 mg/kg, 30 mg/kg) or BMS986165 (10 mg/kg) orally gavage twice a day the night before the first injection of IL-23. The control group was injected with vehicle alone. The experiment lasted for 14 days. The thickness of the ear was measured with a micrometer every two days.

[5] = tested on: JAK1/JAK3 pathway; assay: Selectivity: JAK1/JAK3 pathway, IL-2-induced p-STAT5 in human PBMC, western blot; type: cell-based; settings: IL-2 100 ng/mL
Procedure: Commercial human PBMC (peripheral blood mononuclear cells) were centrifuged (400 g) for 10 min, counted and seeded into 6-well plates (5 million/well). The compounds to be tested were added for 2 hours and then IL-2 (100 ng/mL) was added to stimulate cells for 15 minutes. Finally, p-STAT5/STAT5 and internal reference protein β-actin were detected by Western blot.

[6] = tested on: production of CXCL-10 stimulated by IFNα in PBMC; assay: ELISA: production of CXCL-10 stimulated by IFNα in PBMC; type: cell-based; settings: CXCL-10 production stimulated by IFNα in PBMC, ELISA
Procedure: • 1. Soak plate: Add 300 μL 1×washing solution and let stand for 30 seconds. After discarding the washing solution, dry the microporous plate on absorbent paper. • 2. Add standard: Add 100 μL of 2-fold standard to standard well. Add 100 μL standard dilution (serum/plasma sample) or culture medium (cell culture supernatant sample) to blank well. • 3. Add sample: Serum/plasma: Add 50 μL 1×assay buffer and 50 μL sample to sample well. Cell culture supernatant: Add 100 μL cell culture supernatant to sample well. • 4. Add detection antibody: Add 50 μL diluted detection antibody (1:100 diluted) to each well. Make sure steps 4, 5 and 6 are added continuously without interruption. The sampling process was completed within 15 minutes. • 5. Incubation: Use sealing plate film to seal the plate. shake at 300 rpm and incubate for 2 hours at room temperature. • 6. Washing: Discard the liquid, add 300 μL of washing solution and wash the plate 6 times. pat dry on blotting paper after each wash. To obtain the desired experimental performance, the residual liquid must be completely removed. • 7. Enzyme addition: Add 100 μL diluted horseradish peroxidase labeled streptavidin to each well (1:100 diluted). • 8. Incubation: Seal the plate with a new sealing film. shake at 300 rpm and incubate at room temperature for 45 minutes. • 9. Washing. Repeat step […]. • 10. Add substrate for color development: Add 100 μL of color development substrate TMB to each well, keep away from light, and incubate at room temperature for 5-30 minutes. • 11. Add Stop Solution: Add 100 μL stop solution to each well. The color changed from blue to yellow. If the color appears green or the color changes unevenly, gently tap the frame of the plate to mix well. • 12. Assay readout: Within 30 minutes, perform dual wavelength detection using a microplate reader to measure the OD at the absorption maximum at 450 nm and reference wavelengths at 570 nm or 630 nm. The calibrated OD value is the measured value at 450 nm minus the measured value at 570 nm or 630 nm.

[7] = target: JAK1 JH1 (Homo sapiens (Human), UniProt P23458); assay: Competitive binding assay (kinase-tagged phage, qPCR), JAK1 JH1
Procedure: (§1) For most assays, kinase-tagged T7 phage strains were prepared in an E. coli host derived from the BL21 strain. E. coli were grown to log-phase and infected with T7 phage and incubated with shaking at 32° C. until lysis. The lysates were centrifuged and filtered to remove cell debris. The remaining kinases were produced in HEK-293 cells and subsequently tagged with DNA for qPCR detection. Streptavidin coated magnetic beads were treated with biotinylated small molecule ligands for 30 minutes at room temperature to generate affinity resins for kinase assays. The liganded beads were blocked with excess biotin and washed with blocking buffer (SeaBlock (Pierce), 1% BSA, 0.05% Tween 20, 1 mM DTT) to remove unbound ligand and to reduce non-specific binding. […] Test compounds were prepared as 111X stocks in 100% DMSO. Dissociation constants (Kds) were determined using an 11-point 3-fold compound dilution series with three DMSO control points. All compounds for Kd measurements are distributed by acoustic transfer (non-contact dispensing) in 100% DMSO. The compounds were then diluted directly into the assays such that the final concentration of DMSO was 0.9%. All reactions performed in polypropylene 384-well plate. Each was a final volume of 0.02 ml. The assay plates were incubated at room temperature with shaking for 1 hour and the affinity beads were washed with wash buffer (1×PBS, 0.05% Tween 20). The beads were then re-suspended in elution buffer (1×PBS, 0.05% Tween 20, 0.5 μM nonbiotinylated affinity ligand) and incubated at room temperature with shaking for 30 minutes. The kinase concentration in the eluates was measured by qPCR.
(§2) An 11-point 3-fold serial dilution of each test compound was prepared in 100% DMSO at 100× final test concentration and subsequently diluted to 1× in the assay (final DMSO concentration=1%). Most Kds were determined using a compound top concentration=30,000 nM. If the initial Kd determined was <0.5 nM (the lowest concentration tested), the measurement was repeated with a serial dilution starting at a lower top concentration.
(§3) Binding constants (Kds) were calculated with a standard dose-response curve using the Hill equation: […]
(§4) The Hill Slope was set to −1.
(§5) Curves were fitted using a non-linear least square fit with the Levenberg-Marquardt algorithm.

[8] = target: JAK2 JH1 (Homo sapiens (Human), UniProt O60674); assay: Competitive binding assay (kinase-tagged phage, qPCR), JAK2 JH1
Procedure: For most assays, kinase-tagged T7 phage strains were prepared in an E. coli host derived from the BL21 strain. E. coli were grown to log-phase and infected with T7 phage and incubated with shaking at 32° C. until lysis. The lysates were centrifuged and filtered to remove cell debris. The remaining kinases were produced in HEK-293 cells and subsequently tagged with DNA for qPCR detection. Streptavidin coated magnetic beads were treated with biotinylated small molecule ligands for 30 minutes at room temperature to generate affinity resins for kinase assays. The liganded beads were blocked with excess biotin and washed with blocking buffer (SeaBlock (Pierce), 1% BSA, 0.05% Tween 20, 1 mM DTT) to remove unbound ligand and to reduce non-specific binding. […] Test compounds were prepared as 111X stocks in 100% DMSO. Dissociation constants (Kds) were determined using an 11-point 3-fold compound dilution series with three DMSO control points. […] The kinase concentration in the eluates was measured by qPCR.
An 11-point 3-fold serial dilution of each test compound was prepared in 100% DMSO at 100× final test concentration and subsequently diluted to 1× in the assay (final DMSO concentration=1%). Most Kds were determined using a compound top concentration=30,000 nM. […]
as §3

[9] = target: TYK2 JH2 (Homo sapiens (Human), UniProt P29597); assay: Competitive binding assay (kinase-tagged phage, qPCR), TYK2 JH2
Procedure: as §1, §2, §3, §4, §5

[10] = tested on: TYK2/JAK1 pathway; assay: Selectivity: TYK2/JAK1 pathway, IFN-α-induced p-STAT1 in human PBMC, western blot; type: cell-based; settings: IFN-α 100 ng/mL, western blot
Procedure: Commercial human PBMC (peripheral blood mononuclear cells) were centrifuged (400 g) for 10 min, counted and planted on 6-well plates (5 million/well). Then, the compounds to be tested were added for 2 hours and IFN-α (100 ng/mL) was added to stimulate cells for 15 minutes. Protein lysate was used to lysate cells, and BCA kit was used for protein quantification. Finally, p-STAT1/STAT1, P-TYK2/TYK2 and internal reference protein B-Actin were detected by Western blot.

[11] = target: hERG channel (Homo sapiens (Human), UniProt Q12809); assay: in vitro; settings: human
Procedure: Chinese hamster ovary (CHO) cell line, CHO-hERG cells were used in this study. CHO-hERG cells were derived from Sophion Biosciences Inc. (Ballerup, Denmark) in Suzhou, China. The cell reserve fluid is frozen in liquid nitrogen tanks. Each batch of stored cell fluid is tested for mycoplasma contamination. The cells were no longer used after 30 generations.
The whole cell patch clamp technique was used to record hERG current at room temperature. The patch-clamp amplifier outputs signals through […] conversion and 2.9 KHz low-pass filtering. Data records were collected by Patchmaster Pro software.
Cells were planted in a cell recording tank and placed on an inverted microscope platform. One cell in the recording tank was randomly selected for experiment. The perfusion system was fixed on an inverted microscope platform and cells were continuously irrigated with ECS.
Manual patch clamp recording microelectrode was prepared with capillary glass tube, which was filled with intracellular fluid. On the day of the patch clamp test, the electrodes were prepared using a borosilicate glass tube (GC150TF-10, Harvard Apparatus Co. UK). The resistance is between 2-5 MΩ after the electrode is filled with ICS.
The clamping voltage was −80 mV, and the first step was depolarized to +60 mV for 850 ms to open the hERG channel. The voltage is then set to −50 mV and maintained for 1275 ms, resulting in a rebound current or tail current, the peak of which is measured and used for analysis. Finally, the voltage is restored to the clamping voltage (−80 mV). During the test, the command voltage program was repeated every 15 s.
At the beginning of recording the perfusion of the solvent control working solution, the test substance/positive control working solution to be tested can be poured after monitoring the tail current peak until more than 3 scanning curves are stable, until the inhibition of the test substance/positive control working solution to the hERG current peak reaches a stable state. Generally, the most recent three consecutive peak values of the current curve basically coincide as a criterion to judge whether the state is stable. After reaching a stable state, continue to pour one concentration of the test sample. One or more test subjects/positive controls, or multiple concentrations of the same drug, can be tested on a cell, and the different test subjects/positive controls need to be rinsed with a solvent control working fluid until the hERG current returns to more than 80% of its pre-drug level.
The concentration of positive control cisapride was 0.1 μM, and two cells were repeated.

TYK2 JH2, sequence (P29597 589-875): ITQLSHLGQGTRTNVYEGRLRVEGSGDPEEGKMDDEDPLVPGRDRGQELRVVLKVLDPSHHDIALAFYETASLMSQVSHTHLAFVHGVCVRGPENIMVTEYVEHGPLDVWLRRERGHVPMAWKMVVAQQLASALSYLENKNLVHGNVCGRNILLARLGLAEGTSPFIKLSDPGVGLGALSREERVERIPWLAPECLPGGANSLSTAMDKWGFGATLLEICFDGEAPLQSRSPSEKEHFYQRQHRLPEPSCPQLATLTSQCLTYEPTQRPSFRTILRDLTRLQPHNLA
TYK2, sequence (Q9R117 whole entry): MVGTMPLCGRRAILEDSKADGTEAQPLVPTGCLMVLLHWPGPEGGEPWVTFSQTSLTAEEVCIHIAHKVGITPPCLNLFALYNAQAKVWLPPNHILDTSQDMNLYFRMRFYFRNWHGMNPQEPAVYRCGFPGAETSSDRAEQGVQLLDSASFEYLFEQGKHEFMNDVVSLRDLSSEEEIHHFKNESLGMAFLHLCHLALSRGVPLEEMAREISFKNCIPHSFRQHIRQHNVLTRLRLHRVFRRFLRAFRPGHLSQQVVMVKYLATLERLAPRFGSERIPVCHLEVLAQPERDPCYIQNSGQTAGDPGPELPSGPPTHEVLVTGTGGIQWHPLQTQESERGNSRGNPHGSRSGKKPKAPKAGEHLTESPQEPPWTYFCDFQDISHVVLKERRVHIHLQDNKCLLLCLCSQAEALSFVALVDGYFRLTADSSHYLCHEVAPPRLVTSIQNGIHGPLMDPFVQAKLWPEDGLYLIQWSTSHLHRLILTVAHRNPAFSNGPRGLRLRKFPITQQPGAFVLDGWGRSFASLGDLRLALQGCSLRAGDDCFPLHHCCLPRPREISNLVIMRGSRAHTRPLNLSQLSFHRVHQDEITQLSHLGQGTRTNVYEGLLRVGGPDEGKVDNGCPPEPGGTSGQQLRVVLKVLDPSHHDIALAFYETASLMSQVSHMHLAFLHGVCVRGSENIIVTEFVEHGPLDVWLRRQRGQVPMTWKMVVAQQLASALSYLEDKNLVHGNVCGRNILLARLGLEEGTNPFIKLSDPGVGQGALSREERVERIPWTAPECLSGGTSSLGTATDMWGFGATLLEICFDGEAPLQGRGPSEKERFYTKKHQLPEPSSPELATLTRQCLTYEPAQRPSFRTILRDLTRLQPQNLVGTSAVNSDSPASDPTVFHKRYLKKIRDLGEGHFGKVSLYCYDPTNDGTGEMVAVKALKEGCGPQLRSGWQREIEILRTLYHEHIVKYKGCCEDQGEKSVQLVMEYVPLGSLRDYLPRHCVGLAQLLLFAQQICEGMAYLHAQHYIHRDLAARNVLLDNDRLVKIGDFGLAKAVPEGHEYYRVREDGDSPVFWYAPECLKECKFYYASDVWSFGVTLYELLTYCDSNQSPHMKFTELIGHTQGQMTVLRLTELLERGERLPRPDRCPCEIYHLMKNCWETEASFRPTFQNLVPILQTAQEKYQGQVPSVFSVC
JAK1 JH1, sequence (P23458 875-1153): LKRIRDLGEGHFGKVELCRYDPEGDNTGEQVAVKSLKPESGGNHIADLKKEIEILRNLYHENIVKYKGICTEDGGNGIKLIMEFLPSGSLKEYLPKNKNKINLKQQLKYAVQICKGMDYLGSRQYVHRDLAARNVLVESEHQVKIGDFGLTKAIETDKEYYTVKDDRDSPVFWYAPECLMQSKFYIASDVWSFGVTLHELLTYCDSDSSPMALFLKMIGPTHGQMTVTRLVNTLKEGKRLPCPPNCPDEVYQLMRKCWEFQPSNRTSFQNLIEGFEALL
hERG channel, sequence (Q12809 whole entry): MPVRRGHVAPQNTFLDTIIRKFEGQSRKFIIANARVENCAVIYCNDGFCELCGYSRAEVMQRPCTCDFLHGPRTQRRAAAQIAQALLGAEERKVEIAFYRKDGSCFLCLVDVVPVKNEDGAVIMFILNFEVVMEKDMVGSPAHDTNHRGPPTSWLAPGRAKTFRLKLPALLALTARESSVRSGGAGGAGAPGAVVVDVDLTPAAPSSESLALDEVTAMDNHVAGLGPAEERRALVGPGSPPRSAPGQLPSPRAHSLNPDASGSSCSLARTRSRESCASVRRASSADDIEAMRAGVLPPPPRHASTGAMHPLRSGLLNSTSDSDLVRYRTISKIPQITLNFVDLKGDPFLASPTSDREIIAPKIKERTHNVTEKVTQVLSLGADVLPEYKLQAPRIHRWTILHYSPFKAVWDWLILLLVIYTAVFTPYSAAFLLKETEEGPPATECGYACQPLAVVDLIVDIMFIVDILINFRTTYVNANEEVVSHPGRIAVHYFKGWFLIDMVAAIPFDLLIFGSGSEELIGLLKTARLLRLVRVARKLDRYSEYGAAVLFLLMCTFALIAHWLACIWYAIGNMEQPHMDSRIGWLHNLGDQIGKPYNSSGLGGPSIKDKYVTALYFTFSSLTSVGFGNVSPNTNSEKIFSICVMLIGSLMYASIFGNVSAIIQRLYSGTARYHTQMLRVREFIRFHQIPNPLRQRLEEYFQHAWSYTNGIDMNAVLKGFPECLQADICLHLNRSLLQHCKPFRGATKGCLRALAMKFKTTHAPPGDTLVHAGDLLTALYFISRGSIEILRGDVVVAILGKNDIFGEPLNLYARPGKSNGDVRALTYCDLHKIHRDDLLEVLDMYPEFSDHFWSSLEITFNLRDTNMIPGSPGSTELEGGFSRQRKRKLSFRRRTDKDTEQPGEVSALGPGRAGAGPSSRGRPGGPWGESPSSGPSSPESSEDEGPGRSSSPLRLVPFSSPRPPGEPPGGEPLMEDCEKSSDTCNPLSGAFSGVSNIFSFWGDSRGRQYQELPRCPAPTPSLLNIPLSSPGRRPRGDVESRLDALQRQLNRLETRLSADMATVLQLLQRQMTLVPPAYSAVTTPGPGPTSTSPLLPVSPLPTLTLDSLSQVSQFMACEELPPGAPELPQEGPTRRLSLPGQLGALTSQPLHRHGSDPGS
JAK2 JH1, sequence (O60674 849-1124): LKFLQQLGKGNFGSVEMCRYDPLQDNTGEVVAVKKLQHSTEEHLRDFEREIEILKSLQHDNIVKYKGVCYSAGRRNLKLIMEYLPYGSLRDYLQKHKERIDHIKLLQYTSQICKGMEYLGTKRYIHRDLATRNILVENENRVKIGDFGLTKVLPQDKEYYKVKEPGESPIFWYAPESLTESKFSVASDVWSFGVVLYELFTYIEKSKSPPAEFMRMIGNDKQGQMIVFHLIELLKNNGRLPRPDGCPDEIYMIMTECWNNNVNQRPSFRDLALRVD

Row | Compound | Kd [7] [nM] | inhibition at 1 µM ([3]; 1000 nM) [%] | Kd [9] [nM] | also measured
1 | N#CC[C@H](C1CCCC1)n1cc(-c2ncnc3[nH]ccc23)cn1 [Ruxolitinib, reference compound] |  |  |  | effect on TPO-induced downstream STAT3 phosphorylation [1]: could inhibit JAK2/JAK2 pathway
2 | BMS986165 [reference compound] |  |  |  | effect on downstream STAT1 phosphorylation induced by IFN-γ [2]: no effect; effect on TPO-induced downstream STAT3 phosphorylation [1]: no effect; Inhibitory activity % (50 nM) ([3]; 50 nM): 74%; Inhibitory activity % (200 nM) ([3]; 200 nM): 89%; Inhibitory activity % (1000 nM) ([3]; 1000 nM): 96%; efficacy in IL-23 induced psoriasis (ear thickness) [4]: effectively inhibit and treat; effect on IL-2-induced downstream STAT5 phosphorylation [5]: no effect; IC50 [6]: 56.8 nM
3 | COc1cc(N)c(Cl)cc1C(=O)NC1CCN(CCCOc2ccc(F)cc2)CC1OC (stereo not drawn) [Cisapride, reference compound] |  |  |  | inhibition at 0.1 µM [11]: > 50%

More lines, main results first:

Row | Kd [7] [nM] | inhibition at 1 µM ([3]; 1000 nM) [%] | Kd [9] [nM] | Compound | also measured
4 | > 30000 | 95 | 0.0079 | CCC(=O)c1cnc(NC(=O)C2CC2)cc1Nc1nccc(-c2cc(P(=O)(C3CC3)C3CC3)n(C)n2)c1OC [Compound B38] | Kd [8]: 11000 nM; IC50 [6]: 222 nM; inhibition of downstream STAT1 phosphorylation induced by IFN-α [10]: effectively inhibit
5 | > 30000 | 80 | 0.095 | CCC(=O)c1cnc(NC(=O)C2CC2)cc1Nc1cccc(-c2cnc(P(C)(C)=O)cn2)c1OC [Compound B5] | 
6 | > 30000 | 58 | 0.032 | CCC(=O)c1cnc(NC(=O)C2CC2)cc1Nc1cccc(-c2ccc(P(C)(C)=O)cn2)c1OC [Compound B4] | 
7 | > 30000 | 62 | 0.016 | CCC(=O)c1cnc(NC(=O)C2CC2)cc1Nc1cccc(-c2ncc(P(C)(C)=O)cn2)c1OC [Compound B11] | 
8 | > 30000 | 88 | 0.4 | CCC(=O)c1cnc(NC(=O)C2CC2)cc1Nc1cccc(-c2ccc(P(C)(C)=O)cc2)c1OC [Compound B3] | inhibition at 0.01 µM ([3]; 10 nM, read-out: Inhibitory activity % (10 nM)): 21%; inhibition at 0.1 µM ([3]; 100 nM, read-out: Inhibitory activity % (100 nM)): 46%
